Source: ChEMBL document CHEMBL1123207, “Synthesis and structure-activity relationships of antibacterial phosphonopeptides incorporating (1-aminoethyl)phosphonic acid and (aminomethyl)phosphonic acid” (1986)
In brackets after ≈: the same amount, converted by molar mass.

Each compound was assayed on Klebsiella aerogenes (assay: Compound was tested for its antibacterial activity against Klebsiella aerogenes 331001 strain.). Conditions: not given.
Format: functional

SMILES	MIC
C[C@@H](NC(=O)[C@@H](N)Cc1ccccc1)P(=O)(O)O	1 µg/mL (≈ 3.67 µM)
C[C@@H](NC(=O)[C@@H](N)CC[S+](C)[O-])P(=O)(O)O (stereo partly specified)	4 µg/mL (≈ 14.7 µM)
C[C@@H](NC(=O)[C@@H](N)CF)P(=O)(O)O	4 µg/mL (≈ 18.7 µM)
C[C@@H](NC(=O)[C@@H](N)CCC/N=C(\N)N[N+](=O)[O-])P(=O)(O)O	2 µg/mL (≈ 6.13 µM)
CSCC[C@H](N)C(=O)N[C@H](C)P(=O)(O)O	0.12 µg/mL (≈ 0.468 µM)
CCCSC[C@H](N)C(=O)N[C@H](C)P(=O)(O)O	0.03 µg/mL (≈ 0.111 µM)
C[C@@H](NC(=O)[C@@H](N)CCS(C)(=O)=O)P(=O)(O)O	32 µg/mL (≈ 111 µM)
C[C@@H](NC(=O)[C@@H](N)Cc1cccs1)P(=O)(O)O	0.25 µg/mL (≈ 0.898 µM)
C[C@@H](NC(=O)[C@@H](N)CCCCN=C(N)N)P(=O)(O)O	0.12 µg/mL (≈ 0.406 µM)
CSC[C@H](N)C(=O)N[C@H](C)P(=O)(O)O	0.03 µg/mL (≈ 0.124 µM)
C[C@@H](NC(=O)[C@@H](N)CS)P(=O)(O)O	16 µg/mL (≈ 70.1 µM)

Each compound was assayed on Enterobacter (assay: Compound was tested for its antibacterial activity against Enterobacter 250002 strain.). Conditions: not given.
Format: functional

SMILES	MIC
C[C@@H](NC(=O)[C@@H](N)Cc1ccccc1)P(=O)(O)O	2 µg/mL (≈ 7.35 µM)
C[C@@H](NC(=O)[C@@H](N)CC[S+](C)[O-])P(=O)(O)O (stereo partly specified)	32 µg/mL (≈ 118 µM)
C[C@@H](NC(=O)[C@@H](N)CF)P(=O)(O)O	32 µg/mL (≈ 149 µM)
C[C@@H](NC(=O)[C@@H](N)CCC/N=C(\N)N[N+](=O)[O-])P(=O)(O)O	8 µg/mL (≈ 24.5 µM)
CSCC[C@H](N)C(=O)N[C@H](C)P(=O)(O)O	1 µg/mL (≈ 3.9 µM)
CCCSC[C@H](N)C(=O)N[C@H](C)P(=O)(O)O	0.06 µg/mL (≈ 0.222 µM)
C[C@@H](NC(=O)[C@@H](N)CCS(C)(=O)=O)P(=O)(O)O	> 128 µg/mL
C[C@@H](NC(=O)[C@@H](N)Cc1cccs1)P(=O)(O)O	1 µg/mL (≈ 3.59 µM)
C[C@@H](NC(=O)[C@@H](N)CCCCN=C(N)N)P(=O)(O)O	2 µg/mL (≈ 6.77 µM)
CSC[C@H](N)C(=O)N[C@H](C)P(=O)(O)O	0.03 µg/mL (≈ 0.124 µM)
C[C@@H](NC(=O)[C@@H](N)CS)P(=O)(O)O	> 128 µg/mL

The compounds below were run on Escherichia coli (assay: Compound was tested for its antibacterial activity against Escherichia coli NCIB 8879 strain.). Conditions: not given.
Format: functional

SMILES	MIC
C[C@@H](NC(=O)[C@@H](N)Cc1ccccc1)P(=O)(O)O	0.5 µg/mL (≈ 1.84 µM)
C[C@@H](NC(=O)[C@@H](N)CC[S+](C)[O-])P(=O)(O)O (stereo partly specified)	4 µg/mL (≈ 14.7 µM)
C[C@@H](NC(=O)[C@@H](N)CF)P(=O)(O)O	0.25 µg/mL (≈ 1.17 µM)
C[C@@H](NC(=O)[C@@H](N)CCC/N=C(\N)N[N+](=O)[O-])P(=O)(O)O	0.5 µg/mL (≈ 1.53 µM)
CSCC[C@H](N)C(=O)N[C@H](C)P(=O)(O)O	0.25 µg/mL (≈ 0.976 µM)
CCCSC[C@H](N)C(=O)N[C@H](C)P(=O)(O)O	0.06 µg/mL (≈ 0.222 µM)
C[C@@H](NC(=O)[C@@H](N)CCS(C)(=O)=O)P(=O)(O)O	16 µg/mL (≈ 55.5 µM)
C[C@@H](NC(=O)[C@@H](N)Cc1cccs1)P(=O)(O)O	0.5 µg/mL (≈ 1.8 µM)
C[C@@H](NC(=O)[C@@H](N)CCCCN=C(N)N)P(=O)(O)O	0.25 µg/mL (≈ 0.847 µM)
CSC[C@H](N)C(=O)N[C@H](C)P(=O)(O)O	0.03 µg/mL (≈ 0.124 µM)
C[C@@H](NC(=O)[C@@H](N)CS)P(=O)(O)O	32 µg/mL (≈ 140 µM)

Each compound was assayed on Salmonella typhimurium (assay: Compound was tested for its antibacterial activity against Salmonella Typhimurium 538003 strain.). Conditions: Salmonella enterica.
Format: functional, Salmonella enterica subsp. enterica serovar Typhimurium

SMILES	MIC
C[C@@H](NC(=O)[C@@H](N)Cc1ccccc1)P(=O)(O)O	32 µg/mL (≈ 118 µM)
C[C@@H](NC(=O)[C@@H](N)CC[S+](C)[O-])P(=O)(O)O (stereo partly specified)	> 128 µg/mL
C[C@@H](NC(=O)[C@@H](N)CF)P(=O)(O)O	32 µg/mL (≈ 149 µM)
C[C@@H](NC(=O)[C@@H](N)CCC/N=C(\N)N[N+](=O)[O-])P(=O)(O)O	64 µg/mL (≈ 196 µM)
CSCC[C@H](N)C(=O)N[C@H](C)P(=O)(O)O	8 µg/mL (≈ 31.2 µM)
CCCSC[C@H](N)C(=O)N[C@H](C)P(=O)(O)O	0.25 µg/mL (≈ 0.925 µM)
C[C@@H](NC(=O)[C@@H](N)CCS(C)(=O)=O)P(=O)(O)O	> 128 µg/mL
C[C@@H](NC(=O)[C@@H](N)Cc1cccs1)P(=O)(O)O	4 µg/mL (≈ 14.4 µM)
C[C@@H](NC(=O)[C@@H](N)CCCCN=C(N)N)P(=O)(O)O	2 µg/mL (≈ 6.77 µM)
CSC[C@H](N)C(=O)N[C@H](C)P(=O)(O)O	0.25 µg/mL (≈ 1.03 µM)
C[C@@H](NC(=O)[C@@H](N)CS)P(=O)(O)O	> 128 µg/mL

These compounds were tested on Staphylococcus aureus (assay: Compound was tested for its antibacterial activity against Staphylococcus aureus NCIB 8625 strain.). Conditions: not given.
Format: functional

SMILES	MIC
C[C@@H](NC(=O)[C@@H](N)Cc1ccccc1)P(=O)(O)O	4 µg/mL (≈ 14.7 µM)
C[C@@H](NC(=O)[C@@H](N)CC[S+](C)[O-])P(=O)(O)O (stereo partly specified)	8 µg/mL (≈ 29.4 µM)
C[C@@H](NC(=O)[C@@H](N)CF)P(=O)(O)O	16 µg/mL (≈ 74.7 µM)
C[C@@H](NC(=O)[C@@H](N)CCC/N=C(\N)N[N+](=O)[O-])P(=O)(O)O	32 µg/mL (≈ 98.1 µM)
CSCC[C@H](N)C(=O)N[C@H](C)P(=O)(O)O	1 µg/mL (≈ 3.9 µM)
CCCSC[C@H](N)C(=O)N[C@H](C)P(=O)(O)O	8 µg/mL (≈ 29.6 µM)
C[C@@H](NC(=O)[C@@H](N)CCS(C)(=O)=O)P(=O)(O)O	32 µg/mL (≈ 111 µM)
C[C@@H](NC(=O)[C@@H](N)Cc1cccs1)P(=O)(O)O	32 µg/mL (≈ 115 µM)
C[C@@H](NC(=O)[C@@H](N)CCCCN=C(N)N)P(=O)(O)O	128 µg/mL (≈ 433 µM)
CSC[C@H](N)C(=O)N[C@H](C)P(=O)(O)O	16 µg/mL (≈ 66.1 µM)
C[C@@H](NC(=O)[C@@H](N)CS)P(=O)(O)O	> 128 µg/mL

These compounds were tested on Haemophilus influenzae (assay: Compound was tested for its antibacterial activity against Haemophilus influenzae NCTC 4560 strain.). Conditions: not given.
Format: functional

SMILES	MIC
C[C@@H](NC(=O)[C@@H](N)Cc1ccccc1)P(=O)(O)O	32 µg/mL (≈ 118 µM)
C[C@@H](NC(=O)[C@@H](N)CC[S+](C)[O-])P(=O)(O)O (stereo partly specified)	16 µg/mL (≈ 58.8 µM)
C[C@@H](NC(=O)[C@@H](N)CF)P(=O)(O)O	8 µg/mL (≈ 37.4 µM)
CSCC[C@H](N)C(=O)N[C@H](C)P(=O)(O)O	16 µg/mL (≈ 62.4 µM)
CCCSC[C@H](N)C(=O)N[C@H](C)P(=O)(O)O	64 µg/mL (≈ 237 µM)
C[C@@H](NC(=O)[C@@H](N)CCS(C)(=O)=O)P(=O)(O)O	32 µg/mL (≈ 111 µM)
C[C@@H](NC(=O)[C@@H](N)Cc1cccs1)P(=O)(O)O	32 µg/mL (≈ 115 µM)
C[C@@H](NC(=O)[C@@H](N)CCCCN=C(N)N)P(=O)(O)O	64 µg/mL (≈ 217 µM)
CSC[C@H](N)C(=O)N[C@H](C)P(=O)(O)O	4 µg/mL (≈ 16.5 µM)
C[C@@H](NC(=O)[C@@H](N)CS)P(=O)(O)O	> 128 µg/mL

These compounds were tested on Enterococcus faecalis (assay: Compound was tested for its antibacterial activity against Streptococcus faecalis 58511 strain.). Conditions: not given.
Format: functional

SMILES	MIC
C[C@@H](NC(=O)[C@@H](N)Cc1ccccc1)P(=O)(O)O	2 µg/mL (≈ 7.35 µM)
C[C@@H](NC(=O)[C@@H](N)CC[S+](C)[O-])P(=O)(O)O (stereo partly specified)	4 µg/mL (≈ 14.7 µM)
C[C@@H](NC(=O)[C@@H](N)CF)P(=O)(O)O	32 µg/mL (≈ 149 µM)
C[C@@H](NC(=O)[C@@H](N)CCC/N=C(\N)N[N+](=O)[O-])P(=O)(O)O	2 µg/mL (≈ 6.13 µM)
CSCC[C@H](N)C(=O)N[C@H](C)P(=O)(O)O	1 µg/mL (≈ 3.9 µM)
CCCSC[C@H](N)C(=O)N[C@H](C)P(=O)(O)O	2 µg/mL (≈ 7.4 µM)
C[C@@H](NC(=O)[C@@H](N)CCS(C)(=O)=O)P(=O)(O)O	4 µg/mL (≈ 13.9 µM)
C[C@@H](NC(=O)[C@@H](N)Cc1cccs1)P(=O)(O)O	2 µg/mL (≈ 7.19 µM)
C[C@@H](NC(=O)[C@@H](N)CCCCN=C(N)N)P(=O)(O)O	2 µg/mL (≈ 6.77 µM)
CSC[C@H](N)C(=O)N[C@H](C)P(=O)(O)O	2 µg/mL (≈ 8.26 µM)
C[C@@H](NC(=O)[C@@H](N)CS)P(=O)(O)O	> 128 µg/mL

Each compound was assayed on Serratia marcescens (assay: Compound was tested for its antibacterial activity against Serratia marcescens ATCC 14756 strain.). Conditions: not given.
Format: functional

SMILES	MIC
C[C@@H](NC(=O)[C@@H](N)Cc1ccccc1)P(=O)(O)O	4 µg/mL (≈ 14.7 µM)
C[C@@H](NC(=O)[C@@H](N)CC[S+](C)[O-])P(=O)(O)O (stereo partly specified)	32 µg/mL (≈ 118 µM)
C[C@@H](NC(=O)[C@@H](N)CCC/N=C(\N)N[N+](=O)[O-])P(=O)(O)O	4 µg/mL (≈ 12.3 µM)
CSCC[C@H](N)C(=O)N[C@H](C)P(=O)(O)O	2 µg/mL (≈ 7.8 µM)
CCCSC[C@H](N)C(=O)N[C@H](C)P(=O)(O)O	0.5 µg/mL (≈ 1.85 µM)
C[C@@H](NC(=O)[C@@H](N)CCS(C)(=O)=O)P(=O)(O)O	> 128 µg/mL
C[C@@H](NC(=O)[C@@H](N)Cc1cccs1)P(=O)(O)O	4 µg/mL (≈ 14.4 µM)
C[C@@H](NC(=O)[C@@H](N)CCCCN=C(N)N)P(=O)(O)O	2 µg/mL (≈ 6.77 µM)
CSC[C@H](N)C(=O)N[C@H](C)P(=O)(O)O	0.5 µg/mL (≈ 2.06 µM)
C[C@@H](NC(=O)[C@@H](N)CS)P(=O)(O)O	> 128 µg/mL
